Source: US5569655A, “Substituted heterocyclylisoquinolinium salts and compositions and method of use thereof” (Sterling Winthrop Inc., priority 1994, dated 1996)

Columns and labels:
[1] = molecular target: PCP recognition sites (PCP receptor); assay: [3H]TCP radioreceptor assay (binding to PCP recognition sites); parameters: species or system rat (male Sprague-Dawley; details: rat whole brain membranes, approx. 1 nM [3H]TCP; for Ki: mean of at least two determinations
Protocol: [^3 H]TCP Radioreceptor Assay
[^3 H]TCP binding to PCP recognition sites was performed as described by Vignon et al. Brain Research 1983, 280, 194-197. Male Sprague-Dawley rats were sacrificed by decapitation, and whole brains were homogenized in 10 volumes (wt/vol) of cold Tris-HCl buffer (50 mM, pH 7.7) using a Brinkmann Polytron (setting 6, 30 sec). The homogenate was centrifuged at 40,000×g for 10 min at 4° C. The supernatant was decanted, and the homogenization and centrifugation steps were repeated twice as described above. Following this, the pellet was resuspended in Tris-HCl (5 mM, pH 7.7) at a tissue concentration of 0.5-0.75 g/ml, and one ml aliquots were frozen at -70° C. until use. The binding characteristics for PCP recognition sites were not altered by the freezing of membrane suspensions.
On the day of the assay, membrane aliquots were thawed, resuspended in fresh 5 mM Tris-HCl buffer at a tissue concentration of 1 mg/ml, and stored on ice until use. Each assay tube contained 100 μl of [^3 H]TCP at a final concentration of approximately 1 nM, 100 μl of various concentrations of the compounds of interest, 500 μl of the tissue suspension and 300 μl of buffer to a final assay volume of 1 ml and a final protein concentration of 0.5 mg/tube. Non-specific binding was defined by addition of a final concentration of 100 μM PCP to blank tubes. All tubes were incubated at room temperature for 25 min before termination of the reaction by rapid filtration over Whatman GF/B glass fiber filters that had been presoaked in a solution of 0.5% polyethylenimine for at least 1 hr prior to use. Filters were washed with three 4 ml volumes of cold Tris buffer. Following addition of scintillation cocktail, the amount of bound radioactivity was determined by liquid scintillation spectrometry using a Beckman LS 5000TA liquid scintillation counter with an efficiency for tritium of approximately 55%. Inhibition constants (Ki values) were calculated using the EBDA/LIGAND program (McPherson, J. Pharmacol. Meth. 1985, 14, 213-228), purchased from Elsevier/Biosoft, Inc. The results are reported as Ki values (in nM) which are expressed as the mean of at least two separate determinations, or as a percent (%) inhibition of binding at 10 μM.
(§1) Table 4 summarizes the results obtained from the testing of representative compounds of the invention in the [^3 H]TCP radioreceptor assay as well as in the antagonism of NMDA-induced neurotoxicity in cultured neurons.

[2] = tested on: NMDA-induced neurotoxicity in cultured cortical neurons; assay: Antagonism of NMDA-induced neurotoxicity in cultured neurons; assay type: cell-based, mouse (Swiss-Webster); details: 500 μM NMDA for 30 minutes, LDH activity after 24 hours
Protocol: Antagonism of NMDA-induced Neurotoxicity in Cultured Neurons
Preparation of cultured cortical neurons
Pregnant, Swiss-Webster mice were obtained from Taconic Farms (Germantown, N.Y.) and sacrificed 16 days post conception. Fetuses were removed and placed in a sterile dish containing Hank's balanced salt solution (HBSS), pH 7.4. Brain cortices were dissected, meninges were removed, the tissue was minced and placed into a solution of HBSS containing 0.25% (w/v) trypsin at 37° C. for 15 minutes. Tissue was then triturated with a sterile pasteur pipet, diluted with minimal essential media (Gibco 330-1430), pH 7.4, supplemented with 10% horse serum, 10% fetal calf serum, 2 mM 1-glutamine, 21 mM d-glucose, 2.2 g/L sodium bicarbonate, 1000 U/ml penicillin, and 1,000 μg/ml streptomycin. Cells were plated onto Falcon primaria 96 well plates at a final density of 50,000 cells/well and incubated at 37° C. in the presence of 5% (v/v) carbon dioxide. After 5 days, plating media was replaced with maintenance media containing minimal essential media (Gibco 330-1430), pH 7.4, supplemented with 10% horse serum, 10% 1-glutamine, 21 mM D-glucose, 2.2 g/l sodium bicarbonate,1,000 U/ml penicillin, 1,000 μg/ml streptomycin, and 10 μM cytosine arabinoside. On days 7 and 10, media was replaced with maintenance media as above lacking the cytosine arabinoside. Experiments were conducted on day 13.
Neuroprotection Assessment
Day 13 cultured cortical neurons were washed twice with minimal essential media, pH 7.4 and then exposed for 30 minutes to 500 μM N-methyl-D-aspartic acid (NMDA) with or without varying concentrations of test agents. […] MK-801 and test agents were prepared in minimal essential media supplemented with 21 mM d-glucose and 2.2 g/L sodium bicarbonate (MEM). After 30 minutes, media was replaced with MEM alone. Exposure of neurons to test agents was limited to the NMDA treatment period. Twenty-four hours after removal of NMDA, an aliquot of media from each well was removed for assessment of cell injury by determining lactate dehydrogenase (LDH) activity by the method of Wroblewski and LaDue Proc. Soc. Exp. Biol. Med. 1955, 90, 210-213. The results are expressed as an IC50 (in nM) value (concentration causing 50% inhibition) for the antagonism of NMDA-induced neurotoxicity.
as §1

| Compound | Ki [1] [nM] | other results |
| --- | --- | --- |
| c1ccc2c(c1)C1CC(c3ccoc3)(c3ccoc3)C2c2scc[n+]21 (racemic) [4(e), 11,11-di(3-furyl)-5,10-ethano-5,10-dihydrothiazolo[3,2-b]isoquinolinium chloride] | 2.9 | IC50 ([2]; Mus musculus, Cortical neurone): 50 nM |
| c1ccc2c(c1)C1CC(c3ccoc3)(c3ccoc3)C2c2scc[n+]21 (single isomer, unassigned; (+)) [5(e), (+)-11,11-di(3-furyl)-5,10-ethano-5,10-dihydrothiazolo[3,2-b]isoquinolinium chloride] | 2 | IC50 [2]: 20 nM |
| c1ccc2c(c1)C1CC(c3ccoc3)(c3ccoc3)C2c2scc[n+]21 (single isomer, unassigned; (-)) [5(c), (-)-11,11-di(3-furyl)-5,10-ethano-5,10-dihydrothiazolo[3,2-b]isoquinolinium chloride] | 5 | IC50 ([2]; Mus musculus, Cortical neurone): 32 nM |
| c1ccc(Cn2cc[n+]3c2C2c4ccccc4C3CC2(c2ccoc2)c2ccoc2)cc1 (centres unmarked) [2(F), 11,11-di(3-furyl)-5,10-ethano-5,10-dihydro-1-benzylimidazo[1,2-b]isoquinolin-4-ium chloride] | 7.7 | – |
| c1ccc(C2(c3ccccc3)CC3c4ccccc4C2c2scc[n+]23)cc1 (centres unmarked) [2(b), 11,11-diphenyl-5,10-ethano-5,10-dihydrothiazolo[1,2-b]isoquinolin-4-ium chloride] | 4.2 | – |
| Cn1cc[n+]2c1C1c3ccccc3C2CC1(c1ccccc1)c1ccccc1 (centres unmarked) [3(b), 11,11-diphenyl-5,10-ethano-5,10-dihydro-1-methylimidazo[1,2-b]isoquinolin-4-ium chloride] | 13 | – |
| CCOC1(OCC)C2c3c(OC)cccc3C([n+]3ccsc32)C1(C)C (centres unmarked) [6(d), 11,11-diethoxy-12,12-dimethyl-9-methoxy-5,10-ethano-5,10-dihydrothiazolo[3,2-b]isoquinolinium chloride] | 9.2 | IC50 ([2]; Mus musculus, Cortical neurone): 79 nM |
| CCOC1(OCC)C2c3ccccc3C([n+]3ccn(C)c32)C1(C)C (centres unmarked) [7(F), 11,11-diethoxy-12,12-dimethyl-5,10-ethano-5,10-dihydro-1-methylimidazo[1,2-b]isoquinolin-4-ium chloride] | 8.2 | IC50 ([2]; Mus musculus, Cortical neurone): 53 nM |
| CCOC1(OCC)C2c3ccccc3C([n+]3ccn(Cc4ccccc4)c32)C1(C)C (centres unmarked) [8(b), 11,11-diethoxy-12,12-dimethyl-5,10-ethano-5,10-dihydro-1-benzylimidazo[1,2-b]isoquinolin-4-ium chloride] | 10 | – |
| c1ccc(Cn2cc[n+]3c2C2c4ccccc4C3CC2(c2ccccc2)c2ccccc2)cc1 (centres unmarked) [9(b), 11,11-diphenyl-5,10-ethano-5,10-dihydro-1-benzylimidazo[1,2-b]isoquinolin-4-ium chloride] | 89 | – |
| CCOC1(OCC)C2c3ccccc3C([n+]3cnn(C)c32)C1(C)C (centres unmarked) [10(b), 11,11-diethoxy-12,12-dimethyl-5,10-ethano-5,10-dihydro-1-methyl-1,2,4-triazolo[1,2-b]isoquinolin-4-ium chloride] | 30 | – |
| Cn1nc[n+]2c1C1c3ccccc3C2CC1(c1ccccc1)c1ccccc1 (centres unmarked) [11(g), 11,11-diphenyl-5,10-ethano-5,10-dihydro-1-methyl-1,2,4-triazo[1,2-b]isoquinolin-4-ium chloride] | 35 | – |
| Cn1nc[n+]2c1C1c3ccccc3C2CC1(c1ccoc1)c1ccoc1 (centres unmarked) [14(E), 11,11-di(3-furyl)-5,10-ethano-5,10-dihydro-1-methyl-1,2,4-triazolo[1,2-b]isoquinolin-4-ium chloride] | 14 | – |
| COc1ccc(Cn2ccc(C3(c4ccn(Cc5ccc(OC)cc5)n4)CC4c5ccccc5C3c3scc[n+]34)n2)cc1 (centres unmarked) [18(e), 11,11-di-[(1-p-methoxybenzyl)-pyrazol-3-yl)]-5,10-ethano-5,10-dihydrothiazolo[3,2-b]isoquinolinium perchlorate] | – | [3H]TCP percent inhibition of binding @ 10 μM ([1]; 10 μM): 6% |
| COc1ccc(Cn2cc[n+]3c2C2c4ccccc4C3CC2(c2ccoc2)c2ccoc2)cc1 (centres unmarked) [19(F), 11,11-di(3-furyl)-5,10-ethano-5,10-dihydro-1-(p-methoxybenzyl)imidazo[1,2-b]isoquinolin-4-ium chloride] | 30 | – |
| c1ccc(-n2cc[n+]3c2C2c4ccccc4C3CC2(c2ccoc2)c2ccoc2)cc1 (centres unmarked) [199(f), 11,11-di(3-furyl)-5,10-ethano-5,10-dihydro-1-phenylimidazo[1,2-b]isoquinolin-4-ium chloride] | 52.2 | – |
| c1ccc(CCCn2cc[n+]3c2C2c4ccccc4C3CC2(c2ccoc2)c2ccoc2)cc1 (centres unmarked) [200(g), 11,11-di(3-furyl)-5,10-ethano-5,10-dihydro-1-(3-phenylpropyl)imidazo[1,2-b]isoquinolin-4-ium chloride] | 67.8 | – |
| CCCCn1cc[n+]2c1C1c3ccccc3C2CC1(c1ccoc1)c1ccoc1 (centres unmarked) [201(f), 11,11-di(3-furyl)-5,10-ethano-5,10-dihydro-1-butylimidazo-[1,2-b]isoquinolin-4-ium chloride] | 36.3 | – |
| c1ccc(Cn2cc[n+]3c2C2c4ccccc4C3CC2(c2cc[nH]n2)c2cc[nH]n2)cc1 (centres unmarked) [202(c), 11,11-di(pyrazol-3-yl)-5,10-ethano-5,10-dihydro-1-benzylimidazo-[1,2-b]isoquinolin-4-ium chloride] | 36.5 | – |
| c1ccc(C(c2ccccc2)n2cc[n+]3c2C2c4ccccc4C3CC2(c2ccoc2)c2ccoc2)cc1 (centres unmarked) [203(d), 11,11-di(3-furyl)-5,10-ethano-5,10-dihydro-1-(1,1-diphenylmethyl)imidazo[1,2-b]isoquinolin-4-ium hexafluorophosphate] | 306 | – |
| c1ccc2c(c1)C1CC(c3ccoc3)(c3ccoc3)C2c2n(Cc3ccc4ccccc4c3)cc[n+]21 (centres unmarked) [204(e), 11,11-di(3-furyl)-5,10-ethano-5,10-dihydro-1-(2-naphthyl-methyl)imidazo[1,2-b]isoquinolin-4-ium chloride] | 330 | – |
| c1ccc2c(c1)C1CC(c3ccoc3)(c3ccoc3)C2c2n(Cc3cccc4ccccc34)cc[n+]21 (centres unmarked) [205(e), 11,11-di(3-furyl)-5,10-ethano-5,10-dihydro-1(1-naphthylmethyl)imidazo[1,2-b]isoquinolin-4-ium chloride] | 329 | – |
| COc1cccc2c1C1c3scc[n+]3C2CC1(c1ccoc1)c1ccoc1 (centres unmarked) [207(b), 11,11-di(3-furyl)-9-methoxy-5,10-ethano-5,10-dihydrothiazolo[3,2-b]isoquinolinium chloride] | 14.1 | – |
| O=C1CC(C2(C3=COC(=O)C3)CC3c4ccccc4C2c2scc[n+]23)=CO1.[O-][Cl+3]([O-])([O-])[O-] (centres unmarked) [Example 17, 11,11-di-(5-oxo-4,5-dihydro-3-furyl)-5,10-ethano-5,10-dihydrothiazolo[3,2-b]isoquinolinium perchlorate] | 640 | – |
